Measurements: PubChem BioAssay (NCI)
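Following 48 hours of exposure in 96-well plates, responses at five concentrations were used to interpolate endpoints linearly. TGI is the concentration that stops growth completely.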

Assays:
Assay in all cases: NCI tumour cell line growth inhibition, 48 h
786-0 renal = system: 786-0 renal
A549 NSCLC = system: A549 NSCLC
ACHN renal = system: ACHN renal
CAKI-1 renal = system: CAKI-1 renal
CCRF-CEM leukemia = system: CCRF-CEM leukemia
COLO 205 colon = system: COLO 205 colon
DLD-1 colon = system: DLD-1 colon
EKVX NSCLC = system: EKVX NSCLC
HCT-116 colon = system: HCT-116 colon
HL-60(TB) leukemia = system: HL-60(TB) leukemia
HOP-18 NSCLC = system: HOP-18 NSCLC
HOP-92 NSCLC = system: HOP-92 NSCLC
HT29 colon = system: HT29 colon
IGROV1 ovarian = system: IGROV1 ovarian
K-562 leukemia = system: K-562 leukemia
KM12 colon = system: KM12 colon
KM20L2 colon = system: KM20L2 colon
LOX IMVI melanoma = system: LOX IMVI melanoma
LXFL 529 NSCLC = system: LXFL 529 NSCLC
M14 melanoma = system: M14 melanoma
MOLT-4 leukemia = system: MOLT-4 leukemia
NCI-H226 lung = system: NCI-H226 lung
NCI-H23 lung = system: NCI-H23 lung
NCI-H460 lung = system: NCI-H460 lung
NCI-H522 lung = system: NCI-H522 lung
OVCAR-3 ovarian = system: OVCAR-3 ovarian
OVCAR-4 ovarian = system: OVCAR-4 ovarian
OVCAR-5 ovarian = system: OVCAR-5 ovarian
OVCAR-8 ovarian = system: OVCAR-8 ovarian
RPMI-8226 leukemia = system: RPMI-8226 leukemia
RXF 393 renal = system: RXF 393 renal
RXF-631 renal = system: RXF-631 renal
SF-268 CNS = system: SF-268 CNS
SF-295 CNS = system: SF-295 CNS
SF-539 CNS = system: SF-539 CNS
SK-MEL-2 melanoma = system: SK-MEL-2 melanoma
SK-MEL-28 melanoma = system: SK-MEL-28 melanoma
SK-MEL-5 melanoma = system: SK-MEL-5 melanoma
SK-OV-3 ovarian = system: SK-OV-3 ovarian
SN12C renal = system: SN12C renal
SNB-19 CNS = system: SNB-19 CNS
SNB-75 CNS = system: SNB-75 CNS
SNB-78 CNS = system: SNB-78 CNS
SR leukemia = system: SR leukemia
SW-620 colon = system: SW-620 colon
TK-10 renal = system: TK-10 renal
UACC-257 melanoma = system: UACC-257 melanoma
UACC-62 melanoma = system: UACC-62 melanoma
UO-31 renal = system: UO-31 renal
XF 498 CNS = system: XF 498 CNS
A498 renal = system: A498 renal
DMS 114 small cell lung = system: DMS 114 small cell lung
DMS 273 small cell lung = system: DMS 273 small cell lung
HCC-2998 colon = system: HCC-2998 colon
HCT-15 colon = system: HCT-15 colon
HOP-62 NSCLC = system: HOP-62 NSCLC
M19-MEL melanoma = system: M19-MEL melanoma
MALME-3M melanoma = system: MALME-3M melanoma
U251 CNS = system: U251 CNS

In the case of `C[C@H](C(=O)C12CC3CC(CC(C3)C1)C2)[C@H](O)c1ccccc1`, the TGI (786-0 renal) is reported as 55.7 µM, the TGI (A549 NSCLC) is reported as over 100 µM and the TGI (ACHN renal) is reported as over 100 µM. The TGI (CAKI-1 renal) was 91.2 µM, the TGI (CCRF-CEM leukemia) was over 100 µM and the TGI (COLO 205 colon) was 28.3 µM. It also gave a TGI (DLD-1 colon) of over 100 µM, a TGI (EKVX NSCLC) of over 100 µM and a TGI (HCT-116 colon) of 32.3 µM. The TGI (HL-60(TB) leukemia) was 58.1 µM, the TGI (HOP-18 NSCLC) was over 100 µM and the TGI (HOP-92 NSCLC) was 45.8 µM. It also gave a TGI (HT29 colon) of 34.1 µM, a TGI (IGROV1 ovarian) of over 100 µM and a TGI (K-562 leukemia) of over 100 µM. The TGI (KM12 colon) was 70.7 µM, the TGI (KM20L2 colon) was 43.9 µM and the TGI (LOX IMVI melanoma) was 32 µM. For the same molecule, the TGI (LXFL 529 NSCLC) was over 100 µM, the TGI (M14 melanoma) was over 100 µM and the TGI (MOLT-4 leukemia) was over 100 µM. For the same molecule, the TGI (NCI-H226 lung) was 36.5 µM, the TGI (NCI-H23 lung) was over 100 µM and the TGI (NCI-H460 lung) was over 100 µM. The TGI (NCI-H522 lung) was 57.8 µM, the TGI (OVCAR-3 ovarian) was 63.3 µM and the TGI (OVCAR-4 ovarian) was over 100 µM. It also gave a TGI (OVCAR-5 ovarian) of 56.2 µM, a TGI (OVCAR-8 ovarian) of over 100 µM and a TGI (RPMI-8226 leukemia) of over 100 µM. The TGI (RXF 393 renal) was 48.3 µM, the TGI (RXF-631 renal) was over 100 µM and the TGI (SF-268 CNS) was 30.2 µM. For the same molecule, the TGI (SF-295 CNS) was over 100 µM, the TGI (SF-539 CNS) was 96.5 µM and the TGI (SK-MEL-2 melanoma) was 38.8 µM. The TGI (SK-MEL-28 melanoma) was 31.4 µM, the TGI (SK-MEL-5 melanoma) was 32 µM and the TGI (SK-OV-3 ovarian) was over 100 µM. For the same molecule, the TGI (SN12C renal) was 36.1 µM, the TGI (SNB-19 CNS) was over 100 µM and the TGI (SNB-75 CNS) was 75.9 µM. For the same molecule, the TGI (SNB-78 CNS) was over 100 µM, the TGI (SR leukemia) was 78.4 µM and the TGI (SW-620 colon) was over 100 µM. The TGI (TK-10 renal) was over 100 µM, the TGI (UACC-257 melanoma) was 78.4 µM and the TGI (UACC-62 melanoma) was over 100 µM. For the same molecule, the TGI (UO-31 renal) was 73.5 µM and the TGI (XF 498 CNS) was 67.7 µM.
In the case of `O=C(CC1(O)C(=O)Nc2c(Cl)cc(Cl)cc21)c1ccc(Br)cc1` (stereo not drawn), the TGI (786-0 renal) is reported as 26.4 µM, the TGI (A498 renal) is reported as over 66 µM and the TGI (A549 NSCLC) is reported as 44.2 µM. The TGI (ACHN renal) was 28.8 µM, the TGI (CAKI-1 renal) was 33 µM and the TGI (CCRF-CEM leukemia) was over 55 µM. The TGI (COLO 205 colon) was over 56.1 µM, the TGI (DLD-1 colon) was 18.9 µM and the TGI (DMS 114 small cell lung) was over 53.8 µM. The TGI (DMS 273 small cell lung) was 28.8 µM, the TGI (EKVX NSCLC) was 29.1 µM and the TGI (HCC-2998 colon) was over 56.1 µM. The TGI (HCT-116 colon) was 34.7 µM, the TGI (HCT-15 colon) was over 56.3 µM and the TGI (HL-60(TB) leukemia) was 18.6 µM. For the same molecule, the TGI (HOP-18 NSCLC) was 30.4 µM, the TGI (HOP-62 NSCLC) was 35.7 µM and the TGI (HOP-92 NSCLC) was 29.7 µM. The TGI (HT29 colon) was over 57.9 µM, the TGI (IGROV1 ovarian) was 35.3 µM and the TGI (K-562 leukemia) was over 72.8 µM. It also gave a TGI (KM12 colon) of 30.6 µM, a TGI (KM20L2 colon) of 32.9 µM and a TGI (LOX IMVI melanoma) of over 50.2 µM. For the same molecule, the TGI (LXFL 529 NSCLC) was over 52.4 µM, the TGI (M14 melanoma) was 31.8 µM and the TGI (M19-MEL melanoma) was over 20 µM. The TGI (MALME-3M melanoma) was over 56.1 µM, the TGI (MOLT-4 leukemia) was over 63.5 µM and the TGI (NCI-H226 lung) was 29.5 µM. For the same molecule, the TGI (NCI-H23 lung) was 29.3 µM, the TGI (NCI-H460 lung) was over 56.3 µM and the TGI (NCI-H522 lung) was 32.4 µM. For the same molecule, the TGI (OVCAR-3 ovarian) was 29.8 µM, the TGI (OVCAR-4 ovarian) was 25.6 µM and the TGI (OVCAR-5 ovarian) was 31.4 µM. The TGI (OVCAR-8 ovarian) was over 52.2 µM, the TGI (RPMI-8226 leukemia) was 50.6 µM and the TGI (RXF 393 renal) was 31.1 µM. For the same molecule, the TGI (RXF-631 renal) was 25.4 µM, the TGI (SF-268 CNS) was 34.4 µM and the TGI (SF-295 CNS) was over 55.4 µM. For the same molecule, the TGI (SF-539 CNS) was 31.2 µM, the TGI (SK-MEL-2 melanoma) was over 57.8 µM and the TGI (SK-MEL-28 melanoma) was 35.1 µM. The TGI (SK-MEL-5 melanoma) was 31.3 µM, the TGI (SK-OV-3 ovarian) was 64 µM and the TGI (SN12C renal) was over 50.4 µM. The TGI (SNB-19 CNS) was 35.5 µM, the TGI (SNB-75 CNS) was 39.5 µM and the TGI (SNB-78 CNS) was 47 µM. It also gave a TGI (SR leukemia) of 62.1 µM, a TGI (SW-620 colon) of over 53 µM and a TGI (TK-10 renal) of 32.1 µM. For the same molecule, the TGI (U251 CNS) was 26.9 µM, the TGI (UACC-257 melanoma) was over 51.3 µM and the TGI (UACC-62 melanoma) was 23.2 µM. The TGI (UO-31 renal) was 17.4 µM.
